Experimental data as given in patent publication US20200061035A1 (Heron Therapeutics, Inc., priority 2016, published 2020).

Legend:
[1] = Pharmacokinetic analysis of granisetron and olanzapine formulation in canines (plasma concentration by LC/MS/MS); format: in vivo; conditions: both sexes, dog, dogs, same formulation, approx. 5 mg granisetron, read-out: Average Plasma Concentrations of Granisetron
Experimental: Plasma samples were taken from each dog at the following time points: 0, 0.5, 1, 3, 6, 8, 24, 48, 72, 96, 120 hours, and frozen.

[2] = cited from earlier work

| concentration at 0.5 h ([1]; 0.5 hrs) [ng/mL] | concentration at 1 h ([1]; 1 hr) [ng/mL] | concentration at 3 h ([1]; 3 hrs) [ng/mL] | concentration at 6 h ([1]; 6 hrs) [ng/mL] | concentration at 8 h ([1]; 8 hrs) [ng/mL] | concentration at 24 h ([1]; 24 hrs) [ng/mL] | concentration at 48 h ([1]; 48 hrs) [ng/mL] | concentration at 72 h ([1]; 72 hrs) [ng/mL] | concentration at 96 h ([1]; 96 hrs) [ng/mL] | concentration at 120 h ([1]; 120 hrs) [ng/mL] | SMILES | Solubility in water [2] |
| --- | --- | --- | --- | --- | --- | --- | --- | --- | --- | --- | --- |
| 11.7 | 14.3 | 14.2 | 10.7 | 8.02 | 6.82 | 3.27 | 1.54 | 0.95 | 0.4 | CN1C2CCCC1CC(NC(=O)c1nn(C)c3ccccc13)C2 (centres unmarked) [Granisetron, granisetron] |  |
|  |  |  |  |  |  |  |  |  |  | Cc1cc2c(s1)Nc1ccccc1N=C2N1CCN(C)CC1 [Olanzapine, 2-methyl-10-(4-methyl-1-piperazinyl)-4H-thieno[2,3-b][1,5]benzodiazepine] | practically insoluble |
